Measured values reported in US20260078158A1, “COMPOSITIONS COMPRISING CXCL10-DERIVED PEPTIDES AND METHODS OF USE THEREOF” (priority 2022, published 2026).
“And” between values parts separate entries of the source, which are not always exact repeats. Identical values can stand only once. Like-named read-outs stand apart in the source and are kept apart here.

What was measured:
[1] = system: Enterococcus faecalis; assay: microbe, parasite or virus in culture; assay type: cell-based; conditions: acetate formulation, in µg/mL
[2] = system: Enterococcus faecium; assay: microbe, parasite or virus in culture; assay type: cell-based; conditions: acetate formulation
[3] = system: Acinetobacter baumannii-calcoaceticus complex; assay: microbe, parasite or virus in culture; assay type: cell-based; conditions: acetate formulation
[4] = system: Escherichia coli; assay: microbe, parasite or virus in culture; assay type: cell-based; conditions: acetate formulation
[5] = system: E. cloacae species complex; assay: microbe, parasite or virus in culture; assay type: cell-based, Enterobacter cloacae; conditions: acetate formulation
[6] = system: Pseudomonas aeruginosa; assay: microbe, parasite or virus in culture; assay type: cell-based; conditions: acetate formulation, in µg/mL
[7] = system: Streptococcus pneumoniae; assay: microbe, parasite or virus in culture; assay type: cell-based; conditions: acetate formulation, in µg/mL
[8] = system: Staphylococcus aureus; assay: microbe, parasite or virus in culture; assay type: cell-based; conditions: acetate formulation, in µg/mL
[9] = system: Klebsiella pneumoniae; design: MIC: unit not given beside the values; conditions: strain ATCC 43816, sponsor, acetate formulation

RYVRCRCI [Peptide P194] gave an MIC ([1]; strain 1204777, VRE, replicate R1) of 4, an MIC ([1]; strain 1204777, VRE, replicate R2) of 2 and an MIC ([1]; strain 1211589, VRE, replicate R1) of 4. The MIC ([1]; strain 1211589, VRE, replicate R2) was 2, the MIC ([1]; strain ATCC 29212, QC, replicate R1) was 4 and the MIC ([1]; strain ATCC 29212, QC, replicate R2) was 4. For the same sequence, the MIC ([2]; strain 1196024, VRE, replicate R1) was 2 µg/mL, the MIC ([2]; strain 1196024, VRE, replicate R2) was 2 µg/mL and the MIC ([2]; strain 1208412, VRE, replicate R1) was 2 µg/mL. For the same sequence, the MIC ([2]; strain 1208412, VRE, replicate R2) was 1 µg/mL, the MIC ([2]; strain 1222807, VSE, replicate R1) was 2 µg/mL and the MIC ([2]; strain 1222807, VSE, replicate R2) was 1 µg/mL. It also gave an MIC ([3]; strain 1204424, non-MDR, replicate R1) of 8 µg/mL, an MIC ([3]; strain 1204424, non-MDR, replicate R2) of 8 µg/mL and an MIC ([3]; strain 1208060, non-MDR, replicate R1) of 8 µg/mL. The MIC ([3]; strain 1208060, non-MDR, replicate R2) was 4 µg/mL, the MIC ([3]; strain 1215088, MDR, replicate R1) was 8 µg/mL and the MIC ([3]; strain 1215088, MDR, replicate R2) was 4 µg/mL. It also gave an MIC ([3]; strain 1215098, MDR, replicate R1) of 16 µg/mL, an MIC ([3]; strain 1215098, MDR, replicate R2) of 8 µg/mL and an MIC ([3]; strain 1216520, non-MDR, replicate R1) of 8 µg/mL. For the same sequence, the MIC ([3]; strain 1216520, non-MDR, replicate R2) was 4 µg/mL, the MIC ([4]; strain 1191008, MDR, ESBL, replicate R1) was 8 µg/mL and the MIC ([4]; strain 1191008, MDR, ESBL, replicate R2) was 8 µg/mL. It also gave an MIC ([4]; strain 1231795, MDR, ESBL, replicate R1) of 8 µg/mL, an MIC ([4]; strain 1231795, MDR, ESBL, replicate R2) of 8 µg/mL and an MIC ([4]; strain 1232428, MDR (COL-R), ESBL, replicate R1) of 16 µg/mL. It also gave an MIC ([4]; strain 1232428, MDR (COL-R), ESBL, replicate R2) of 8 µg/mL, an MIC ([4]; strain 1248389, ESBL, replicate R1) of 8 µg/mL and an MIC ([4]; strain 1248389, ESBL, replicate R2) of 8 µg/mL. For the same sequence, the MIC ([4]; strain ATCC 25922, QC, replicate R1) was 8 (3×) and 4, the MIC ([4]; strain ATCC 25922, QC, replicate R2) was 4 and 8 (2×) and the MIC ([4]; strain ATCC BAA-2452, NDM-1, replicate R1) was 8 µg/mL. It also gave an MIC ([4]; strain ATCC BAA-2452, NDM-1, replicate R2) of 4 µg/mL, an MIC ([5]; Enterobacter cloacae strain 1230117, non-MDR, replicate R1) of 8 µg/mL and an MIC ([5]; Enterobacter cloacae strain 1230117, non-MDR, replicate R2) of 8 µg/mL. It also gave an MIC ([5]; strain 1197959, non-MDR, replicate R1) of 16 µg/mL, an MIC ([5]; strain 1197959, non-MDR, replicate R2) of 16 µg/mL and an MIC ([5]; strain 1204419, non-MDR, replicate R1) of 16 µg/mL. For the same sequence, the MIC ([5]; strain 1204419, non-MDR, replicate R2) was 16 µg/mL, the MIC ([5]; strain 1230601, non-MDR, replicate R1) was 16 µg/mL and the MIC ([5]; strain 1230601, non-MDR, replicate R2) was 8 µg/mL. It also gave an MIC ([5]; strain 1232701, MDR, replicate R1) of 16 µg/mL, an MIC ([5]; strain 1232701, MDR, replicate R2) of 16 µg/mL and an MIC ([6]; strain 1190985, non-MDR, replicate R1) of 32. For the same sequence, the MIC ([6]; strain 1190985, non-MDR, replicate R2) was 32, the MIC ([6]; strain 1202638, MDR, replicate R1) was 32 and the MIC ([6]; strain 1202638, MDR, replicate R2) was 32. It also gave an MIC ([6]; strain 1210081, non-MDR, replicate R1) of 32, an MIC ([6]; strain 1210081, non-MDR, replicate R2) of 32 and an MIC ([6]; strain 1242554, non-MDR, replicate R1) of 32. The MIC ([6]; strain 1242554, non-MDR, replicate R2) was 16, the MIC ([6]; strain 1263496, MDR, replicate R1) was 16 and the MIC ([6]; strain 1263496, MDR, replicate R2) was 8. For the same sequence, the MIC ([6]; strain ATCC 27853, QC, replicate R1) was 16, the MIC ([6]; strain ATCC 27853, QC, replicate R2) was 8 and the MIC ([7]; strain 1200385, PEN-S, replicate R1) was 32. It also gave an MIC ([7]; strain 1200385, PEN-S, replicate R2) of 32, an MIC ([7]; strain 1219456, PEN-R, replicate R1) of 32 and an MIC ([7]; strain 1219456, PEN-R, replicate R2) of 32. It also gave an MIC ([7]; strain 1219876, PEN-R, replicate R1) of 32, an MIC ([7]; strain 1219876, PEN-R, replicate R2) of 32 and an MIC ([7]; strain 1223661, PEN-R, replicate R1) of 32. For the same sequence, the MIC ([7]; strain 1223661, PEN-R, replicate R2) was 32, the MIC ([7]; strain 1227224, PEN-S, replicate R1) was 16 and the MIC ([7]; strain 1227224, PEN-S, replicate R2) was 32. It also gave an MIC ([7]; strain ATCC 49619, QC, replicate R1) of 16, an MIC ([7]; strain ATCC 49619, QC, replicate R2) of 16 and an MIC ([8]; strain 1124691, MRSA (USA300)/MDR, replicate R1) of 32. For the same sequence, the MIC ([8]; strain 1182822, replicate R2) was 32, the MIC ([8]; strain 1189667, MRSA/MDR, replicate R1) was 32 and the MIC ([8]; strain 1189667, MRSA/MDR, replicate R2) was 16. The MIC ([8]; strain 1189809, MRSA/MDR, replicate R1) was 32, the MIC ([8]; strain 1189809, MRSA/MDR, replicate R2) was 32 and the MIC ([8]; strain 1190388, MRSA, replicate R1) was 32. For the same sequence, the MIC ([8]; strain 1190388, MRSA, replicate R2) was 16, the MIC ([8]; strain 1221979, MRSA, replicate R1) was 32 and the MIC ([8]; strain 1221979, MRSA, replicate R2) was 32. The MIC ([8]; strain ATCC 29213, QC, replicate R1) was 32, the MIC ([8]; strain ATCC 29213, QC, replicate R2) was 32 and the MIC ([9]; replicate R1) was 8 (3×) and 4. The MIC ([9]; replicate R2) was 8 and 4 (2×).
